The results in this text go back to patent US8211463B2, “Use of glycolipids as adjuvants” (Helmholtz-Zentrum Fuer Infektionsforschung GmbH, priority 2006, dated 2012).

Entries after “also recorded” stand apart in the source; their conditions may differ.

Test [1] deals with IFNγ, IL-2 and IL-4 secreting splenocytes. The test is described as follows: Elispot of cytokine-secreting splenocytes (IFNγ, IL-2, IL-4). The format is in vivo, Balb/c mice. As to conditions: for spot forming units (SFU) secreting IFNγ / spot forming units (SFU) secreting IFNγ / cytokine secretion: i.n.; for spot forming units (SFU) secreting IFNγ / secretion of IFNγ, IL-2 and IL-4 (SFU) vs β-Gal alone: 10 μg glycolipid; for spot forming units (SFU) secreting IFNγ: MHC class I restricted β-Gal peptide 2 μg/ml, 24 h; for spot forming units (SFU) secreting IFNγ / cytokine secretion / secretion of IFNγ, IL-2 and IL-4 (SFU) vs control animals: 20 up to 30 μg glycolipid; for secretion of IFNγ, IL-2 and IL-4 (SFU) vs β-Gal alone / secretion of IFNγ, IL-2 and IL-4 (SFU) vs control animals: s.c. (parenteral). On the procedure: Co-administration of β-Gal with 10 μg glycolipids 1, 5 and 6 induced a strong cellular immune responses and enhanced levels of IFNγ, IL-2 and IL-4 in response to enhanced concentration of the β-Gal antigen in Balb/c mice. Balb/c mice were immunized by the i.n. or s.c. route with β-Gal alone or together with glycolipids 1, 5 and 6 three times at 2-wk intervals. 10 days after the final immunization, the immunized mice were sacrificed. Splenocytes of mice immunized by the i.n. (FIG. 12) and s.c. (FIG. 13) route were collected and cultured with different concentrations of the antigen. A total of 5×10^6 cells/ml spleen cells were cultured with 2 μg/ml of the MHC cI.I restricted β-Gal peptide (IFNγ) for 24 h and the β-Gal-Protein (IL-2 and 4) for 48 h. IFNγ producing CD8+ T cells were analyzed using BD Elispot kit according to the manufacturer's instructions. […] Bars represent Spot forming units of 10^6 splenocytes with subtracted background mean SFU±SE in each group. Each group consists of five mice. Data are representative of three separate experiments.
Co-administration of β-Gal with 20 up to 30 μg glycolipids 5 and 6 induced strong cellular immune responses and enhanced levels of IFNγ, IL-2 and IL-4 in response to enhanced concentration of the β-Gal antigen in Balb/c mice. Balb/c mice were immunized by the i.n. or s.c. route with β-Gal alone or together with glycolipids 5 and 6 three times at 2-wk intervals. 10 days after the final immunization, the immunized mice were sacrificed. Splenocytes of mice immunized by the i.n. (FIG. 14) and s.c. (FIG. 15) route were collected and cultured with different concentrations of. A total of 5×10^6 cells/ml spleen cells were cultured with 2 μg/ml of the MHC class I restricted β-Gal peptide (IFNγ) for 24 h and the β-Gal-Protein (IL-2 and 4) for 48 h. IFNγ producing CD8+ T cells were analyzed using BD Elispot kit according to the manufacturer's instructions. […] Bars represent Spot forming units of 10^6 splenocytes with subtracted background mean SFU±SEM in each group. Each group consists of five mice. Data are representative of three separate experiments.
Experimental protocol: Spleens from vaccinated mice were removed and pooled for analysis of cellular immune responses. The protocol for vaccination was identical to the protocol described in Example 2. Cells were grown in RPMI 1640 supplemented with 10% fetal calf serum, 100 U/ml of penicillin, 50 μg/ml of streptomycin, 5×10^−5 M 2-mercaptoethanol and 1 mM L-glutamine (GIBCO BRL, Karlsruhe, Germany) and maintained at 37° C. in a humidified 5% CO2 atmosphere. Lymph node and spleen cell suspensions were adjusted to 5×10^6 cells/ml in complete medium, cells were seeded with 100 μl per well in a flat-bottomed 96-well microtiter plate (Nunc) and plates were incubated for 4 days in the presence of different concentrations of soluble β-Gal.
Splenocytes of mice immunized by the i.n. (FIG. 12) and s.c. (FIG. 13) route were collected and cultured with different concentrations of the antigen. A total of 5×10^6 cells/ml spleen cells were cultured with 2 μg/ml of the MHC cI.I restricted β-Gal peptide (IFNγ) for 24 h and the β-Gal-Protein (IL-2 and 4) for 48 h. IFNγ producing CD8+ T cells were analyzed using BD Elispot kit according to the manufacturer's instructions. […] Bars represent Spot forming units of 10^6 splenocytes with subtracted background mean SFU±SE in each group. Each group consists of five mice. Data are representative of three separate experiments.

Test [2] deals with β-Gal-specific mucosal S-IgA. In words: β-Gal-specific secretory IgA in bronchial alveolar and vaginal lavages after i.n. immunisation. The format is in vivo, Balb/c mice. Particulars: for expression of β-Gal-specific S-IgA titers (lavage not named, FIG. 6): 20 up to 30 μg glycolipid, probably vaginal lavage. The procedure: Co-administration of β-Gal with 10 μg glycolipids 1, 5 and 6 induced β-Gal-specific mucosal S-IgA responses in Balb/c mice. Balb/c mice were immunized by the i.n. or s.c. route with β-Gal alone or together with glycolipids 1, 5 and 6 three times at 2-wk intervals. 10 days after the final immunization, the immunized mice were sacrificed. β-Gal-specific S-IgA titers were determined in vaginal lavage (VL) and Bronchial alveolar lavage (BAL) of mice immunized with β-Gal co-administered with glycolipids 1, 5 and 6 by the intranasal route. […] Bars represent mean Ab titer or amount±SE in each group. Each group consists of five mice. Data are representative of three separate experiments.
Co-administration of β-Gal with 20 up to 30 μg glycolipids 5 and 6 induced β-Gal-specific mucosal S-IgA responses in Balb/c mice. Balb/c mice were immunized by the i.n. or s.c. route with β-Gal alone or together with glycolipids 5 and 6 three times at 2-wk intervals. 10 days after the final immunization, the immunized mice were sacrificed. β-Gal-specific S-IgA titers were determined in vaginal lavage (VL) and Bronchial alveolar lavage (BAL) of mice immunized with β-Gal co-administered with glycolipids 5 and 6 by the intranasal route.
Experimental protocol: at day 38, mice were sacrificed and the final sampling was performed. Vaginal and lung lavages were obtained by flushing the organs with 1 ml of PBS supplemented with 50 mM EDTA, 0.1% BSA, and 10 mM PMSF. Lavages were then centrifuged to remove debris (10 min at 3000×g), and supernatant fluids were stored at −20° C. To determine the concentration of total IgA present in the lung and vaginal lavages, serial dilutions of the corresponding samples were incubated in microtiter plates that were previously coated with goat anti-mouse IgA (Sigma Chemie), as capture antibodies (100 μl/well). Serial dilutions of purified mouse IgA (Sigma Chemie) were used to generate a standard curve.

The mark [3] stands for this setting: 10 μg glycolipid + 30 μg β-Gal, day 38.
[4] abbreviates: 20 up to 30 μg glycolipid + 30 μg β-Gal, day 38.

In the case of `CCCCCCCCCCCCCCOCC(COCCCCCCCCCCCCCC)O[C@@H]1O[C@H](CO[C@H]2O[C@H](CO)[C@H](O)[C@H](O)[C@H]2O)[C@@H](O)[C@H](O)[C@H]1O` [glycolipid 6, 1,3-di-O-tetradecyl-2-O-[6′-O-(α-D-galactopyranosyl)-β-D-glucopyranosyl]-sn-glycerol], in test [1], the “spot forming units (SFU) secreting IFNγ” value is given as “only a weak secretion”; the “spot forming units (SFU) secreting IFNγ / cytokine secretion” value is recorded as “reduced cytokine secretion”; the “secretion of IFNγ, IL-2 and IL-4 (SFU) vs β-Gal alone” value (“secretion of IFNγ … vs β-Gal alone” for short) is given as “only weak enhanced secretion”; the “secretion of IFNγ, IL-2 and IL-4 (SFU) vs control animals” value is reported as “only a minor effect”. In addition, the “β-Galactosidase-specific sIgA titer in bronchial alveolar lavage (BAL)” value (“β-Galactosidase-specific sIgA titer” for short) in test [2] (setting [3]) is on record as “below the detection level”. Further, the “β-Galactosidase-specific sIgA titer” value in test [2] (setting [4]) is recorded as “comparable sIgA titers in BAL; also recorded: significant increase”. Besides, the “expression of β-Gal-specific S-IgA titers (lavage not named, FIG. 6)” value in test [2] is recorded as “comparable with titer of the control groups”.

As to `CCCCCCCCCCCCCCOCC(COCCCCCCCCCCCCCC)O[C@@H]1O[C@H](CO)[C@@H](O[C@H]2O[C@H](CO)[C@@H](O)[C@H](O)[C@H]2O)[C@H](O)[C@H]1O` [glycolipid 5, 1,3-Di-O-tetradecyl-2-O-[4′-O-(α-D-glucopyranosyl)-β-D-glucopyranosyl]-sn-glycerol], in test [1], the “spot forming units (SFU) secreting IFNγ” value is recorded as “enhanced expression”; the “spot forming units (SFU) secreting IFNγ / cytokine secretion” value was “enhanced expression”; the “secretion of IFNγ … vs β-Gal alone” value is listed as “only weak enhanced secretion”; the “secretion of IFNγ, IL-2 and IL-4 (SFU) vs control animals” value is on record as “only a minor effect”. Also, in test [2] (setting [3]), the “β-Galactosidase-specific sIgA in vaginal lavages” value is recorded as “enhanced”; the “β-Galactosidase-specific sIgA titer” value is > 1/130 and significant increase. The “β-Galactosidase-specific sIgA titer” value in test [2] (setting [4]) is > 1/170 and significant increase. The “expression of β-Gal-specific S-IgA titers (lavage not named, FIG. 6)” value in test [2] is given as “comparable with titer of the control groups”.

Regarding `CCCCCCCC/C=C\CCCCCCCCOCC(COCCCCCCCC/C=C\CCCCCCCC)O[C@@H]1O[C@H](CO)[C@@H](O[C@H]2O[C@H](CO)[C@@H](O)[C@H](O)[C@H]2O)[C@H](O)[C@H]1O` (relative stereo) [glycolipid 1, 1,3-Di-O[cis-9-octadecenyl]-2-O-[4′-O-(α-D-glycopyranosyl)-β-D-glycopyranosyl]-sn-glycerol], in test [1], the “spot forming units (SFU) secreting IFNγ” value was “only a weak secretion”; the “secretion of IFNγ … vs β-Gal alone” value was “only weak enhanced secretion”. Besides, the “β-Galactosidase-specific sIgA titer” value in test [2] (setting [3]) was “below the detection level”.
